# T1: δ802αβγ-ENaC (Homo sapiens, UniProt P51168+P51170)
# T1 construct: We characterized full-length human δ802-ENaC expressed in both Xenopus oocytes and humanized transgenic mice; expressed in transfected cells; host or cells: Xenopus laevis oocytes injected with cRNA (pGEM HE vector)
# T1 sequence (P51168 1-640): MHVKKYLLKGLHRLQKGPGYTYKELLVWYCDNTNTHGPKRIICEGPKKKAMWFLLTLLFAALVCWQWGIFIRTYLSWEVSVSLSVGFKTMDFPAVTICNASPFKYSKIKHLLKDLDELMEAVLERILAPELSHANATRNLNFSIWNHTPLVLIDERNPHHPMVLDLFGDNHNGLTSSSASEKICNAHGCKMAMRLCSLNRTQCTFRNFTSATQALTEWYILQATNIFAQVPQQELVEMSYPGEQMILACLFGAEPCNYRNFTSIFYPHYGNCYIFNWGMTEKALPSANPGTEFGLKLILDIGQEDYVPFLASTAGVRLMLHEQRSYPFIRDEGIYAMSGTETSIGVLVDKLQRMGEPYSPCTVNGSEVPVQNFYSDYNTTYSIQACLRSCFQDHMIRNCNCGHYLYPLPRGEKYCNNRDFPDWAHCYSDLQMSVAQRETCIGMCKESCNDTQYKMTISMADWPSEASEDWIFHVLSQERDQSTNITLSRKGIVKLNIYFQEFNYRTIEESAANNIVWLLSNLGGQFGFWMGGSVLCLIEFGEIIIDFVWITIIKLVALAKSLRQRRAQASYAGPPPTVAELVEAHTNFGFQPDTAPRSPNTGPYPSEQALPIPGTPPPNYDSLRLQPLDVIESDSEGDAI
# T1 sequence (P51170 1-649): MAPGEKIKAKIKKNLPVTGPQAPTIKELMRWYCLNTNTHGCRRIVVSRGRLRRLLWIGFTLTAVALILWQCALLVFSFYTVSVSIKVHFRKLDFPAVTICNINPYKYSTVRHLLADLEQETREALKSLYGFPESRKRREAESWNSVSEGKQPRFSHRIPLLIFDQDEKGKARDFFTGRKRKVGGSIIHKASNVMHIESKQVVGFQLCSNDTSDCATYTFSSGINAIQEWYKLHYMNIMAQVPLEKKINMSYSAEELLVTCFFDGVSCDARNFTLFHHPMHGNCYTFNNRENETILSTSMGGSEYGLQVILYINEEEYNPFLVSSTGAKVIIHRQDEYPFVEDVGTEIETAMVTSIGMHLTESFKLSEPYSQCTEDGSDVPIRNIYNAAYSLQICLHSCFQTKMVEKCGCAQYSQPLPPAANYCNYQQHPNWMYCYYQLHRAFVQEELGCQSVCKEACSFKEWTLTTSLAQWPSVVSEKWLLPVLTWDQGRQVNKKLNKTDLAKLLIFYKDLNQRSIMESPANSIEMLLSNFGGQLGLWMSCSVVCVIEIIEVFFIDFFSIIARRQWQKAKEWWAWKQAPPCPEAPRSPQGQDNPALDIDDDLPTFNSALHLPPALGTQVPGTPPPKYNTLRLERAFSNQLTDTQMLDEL
# B1: plasmin: serine protease of the plasmin(ogen) signal pathway for fibrinolysis (protein, UniProt P00747 20-580; P00747 581-810, looked up)
# Plasmin heavy chain A: EPLDDYVNTQGASLFSVTKKQLGAGSIEECAAKCEEDEEFTCRAFQYHSKEQQCVIMAENRKSSIIIRMRDVVLFEKKVYLSECKTGNGKNYRGTMSKTKNGITCQKWSSTSPHRPRFSPATHPSEGLEENYCRNPDNDPQGPWCYTTDPEKRYDYCDILECEEECMHCSGENYDGKISKTMSGLECQAWDSQSPHAHGYIPSKFPNKNLKKNYCRNPDRELRPWCFTTDPNKRWELCDIPRCTTPPPSSGPTYQCLKGTGENYRGNVAVTVSGHTCQHWSAQTPHTHNRTPENFPCKNLDENYCRNPDGKRAPWCHTTNSQVRWEYCKIPSCDSSPVSTEQLAPTAPPELTPVVQDCYHGDGQSYRGTSSTTTTGKKCQSWSSMTPHRHQKTPENYPNAGLTMNYCRNPDADKGPWCFTTDPSVRWEYCNLKKCSGTEASVVAPPPVVLLPDVETPSEEDCMFGNGKGYRGKRATTVTGTPCQDWAAQEPHRHSIFTPETNPRAGLEKNYCRNPDGDVGGPWCYTTNPRKLYDYCDVPQCAAPSFDCGKPQVEPKKCPGR
# Plasmin light chain B: VVGGCVAHPHSWPWQVSLRTRFGMHFCGGTLISPEWVLTAAHCLEKSPRPSSYKVILGAHQEVNLEPHVQEIEVSRLFLEPTRKDIALLKLSSPAVITDKVIPACLPSPNYVVADRTECFITGWGETQGTFGAGLLKEAQLPVIENKVCNRYEFLNGRVQSTELCAGHLAGGTDSCQGDSGGPLVCFEKDKYILQGVTSWGLGCARPNKPGVYVRVSRFVTWIEGVMRNN
# modifications: Plasmin
# notes: serine protease of the plasmin(ogen) signal pathway for fibrinolysis
# Molecular target: T1, δ802αβγ-ENaC
# Experiment: Two-electrode voltage clamp of δ802αβγ-ENaC expressed in Xenopus oocytes
# Format: cell-based
# Experimental: Cloning, in vitro transcription, and heterologous expression of δ802 ENaC and two-electrode voltage clamping assay. δ802 and other ENaC subunits were generated in human ENaC cDNAs cloned into a pGEM HE vector [4], [76]. cRNAs of human α, β, and γ ENaC were prepared as described previously. The stoichiometry of native ENaC complexes is unclear to date. Based on the studies in the last decade, several models have been proposed for αβγ ENaC channels: 1α1β1γ, 2α1β1γ, 3α3β3γ. Based on the EM structure of human αβγ ENaC [35], the currently acceptable model of human αβγ ENaC complexes is heterotrimeric (1α1β1γ). Thus we microinjected δ802:β:γ in a 1:1:1 subunit ratio. Oocytes were surgically removed from appropriately anesthetized adult female Xenopus laevis (Xenopus Express). Briefly, the ovarian tissue was removed from the frog under anesthesia by tricaine-S (Western Chemicals) through a small incision in the lower abdomen. Ovarian lobes were removed and digested in OR-2 calcium-free medium (in mM: 82.5 NaCl, 2.5 KCl, 1.0 MgCl2, 1.0 Na2HPO4, and 10.0 HEPES, pH 7.5) with the addition of 2 mg/ml collagenase (Roche, Indianapolis). Defolliculated oocytes were injected with ENaC cRNAs into the cytosol (25 ng per oocyte in 50 nl of RNase-free water) and incubated in regular OR-2 medium at 18°C. The two-electrode voltage-clamp technique was used to record whole-cell currents 48 h post injection. Oocytes were impaled with two electrodes filled with 3M KCl, having resistance of 0.5 - 2 MΩ. A TEV-200A voltage-clamp amplifier (Dagan) was used to clamp oocytes with concomitant recording of currents. Two reference electrodes were connected to the bath. The continuously perfused bathing solution was ND-96 medium (in mM: 96.0 NaCl, 1.0 MgCl2, 1.8 CaCl2, 2.5 KCl, and 5.0 HEPES, pH 7.5). Whole-cell currents were recorded as previously reported. Experiments were controlled by pCLAMP 10.7 software (Molecular Devices), and currents at -40 mV, -100 mV, and +80 mV were continuously monitored with data recorded at intervals of 10 sec. Data were sampled at the rate of 200 Hz and filtered at 50 Hz.
molecule,measurement,setting,value
N=C(N)NC(=O)c1nc(Cl)c(N)nc1N [amiloride],inhibition of the α-13 peptide-resistant remaining fraction of current amplitude,"amiloride 10 μM after α-13 300 μM, δαβγ-ENaC, -100 mV",approximately 80%
Ac-LRGTLPHPLQRLR-NH2 [α-13 peptide],fraction of total δαβγ-ENaC activity suppressed,"α-13 300 μM, -100 mV, n=5, Figure 2B",Approximately half
B1,effect of pre-treatment on δ802αβγ-ENaC activity,"oocytes pre-treated, currents at -100 mV, n=5, Figure 3D",potentiated

# — paper PMC6857051, “Proliferative regulation of alveolar epithelial type 2 progenitor cells by human Scnn1d gene” (Theranostics, 2019)
